The values below come from patent US20120283208A1, “ANTIBACTERIAL AMINOGLYCOSIDE ANALOGS” (Achaogen, Inc., priority 2009, published 2012).

SMILES strings stand for the structures. In brackets after ≈: the same amount, converted by molar mass.

The subject of one assay is E. coli ATCC 25922. The assay can be described thus: MIC broth microdilution, AECO001. The settings on record: Escherichia coli; AECO001 is ATCC25922; Mueller Hinton Broth, 35 C, 20 hours. It is filed as cell-based. The procedure: (§1) Minimum inhibitory concentrations (MIC) were determined by reference Clinical and Laboratory Standards Institute (CLSI) broth microdilution methods per M7-A7 [2006]. Quality control ranges utilizing E. coli ATCC 25922, P. aeruginosa ATCC 27853 and S. aureus ATCC 29213, and interpretive criteria for comparator agents were as published in CLSI M100-S17 [2007]. Briefly, serial two-fold dilutions of the test compounds were prepared at 2× concentration in Mueller Hinton Broth. The compound dilutions were mixed in 96-well assay plates in a 1:1 ratio with bacterial inoculum. The inoculum was prepared by suspension of a colony from an agar plate that was prepared the previous day. Bacteria were suspended in sterile saline and added to each assay plate to obtain a final concentration of 5×10^5 CFU/mL. The plates were incubated at 35 C for 20 hours in ambient air.
Background: Broth dilution looks for growth in wells or tubes with falling amounts of substance.

A further assay relates to P. aeruginosa ATCC 27853. The assay can be described thus: MIC broth microdilution, APAE001. Type of assay: cell-based. The note with it: Pseudomonas aeruginosa; APAE001 is ATCC27853; Mueller Hinton Broth, 35 C, 20 hours. The procedure: as §1

For the compound `NC[C@@H]1O[C@H](O[C@H]2[C@@H](O)[C@H](O[C@@H]3[C@@H](O)[C@H](NC(=O)C4(O)CNC4)C[C@H](N)[C@H]3O[C@H]3O[C@H](CNCCO)[C@@H](O)C[C@H]3N)O[C@@H]2CO)[C@H](N)[C@@H](O)[C@@H]1O` [1/16], the figures for the MIC against E. coli ATCC 25922 and with P. aeruginosa ATCC 27853 were 1 to 16 µg/mL (≈ 1.35 to 21.6 µM) and ≤ 1 µg/mL, respectively.

Take `NC[C@@H]1O[C@H](O[C@H]2[C@@H](O)[C@H](O[C@@H]3[C@@H](O)[C@H](NC(=O)[C@]4(O)C[C@H](N)C4)C[C@H](N)[C@H]3O[C@H]3O[C@H](CNCCO)[C@@H](O)C[C@H]3N)O[C@@H]2CO)[C@H](N)[C@@H](O)[C@@H]1O` [2/9]: the MIC against E. coli ATCC 25922 was 1 to 16 µg/mL (≈ 1.32 to 21.2 µM); against P. aeruginosa ATCC 27853, ≤ 1 µg/mL.

Take `NC[C@@H](O)[C@H](O)C(=O)N[C@@H]1C[C@H](N)[C@@H](O[C@H]2O[C@H](CNCCO)[C@@H](O)C[C@H]2N)[C@H](O[C@@H]2O[C@H](CO)[C@@H](O[C@H]3O[C@@H](CN)[C@@H](O)[C@H](O)[C@H]3N)[C@H]2O)[C@H]1O` [3/3]: the figures for the minimum inhibitory concentration (MIC) in the assay with E. coli ATCC 25922 and in the assay with P. aeruginosa ATCC 27853 were 1 to 16 µg/mL (≈ 1.32 to 21.1 µM) and ≤ 1 µg/mL, respectively.

Regarding `NC[C@@H]1O[C@H](O[C@H]2[C@@H](O)[C@H](O[C@@H]3[C@@H](O)[C@H](NC(=O)[C@@H](O)[C@@H](O)CN)C[C@H](N)[C@H]3O[C@H]3O[C@H](CNCCO)[C@@H](O)C[C@H]3N)O[C@@H]2CO)[C@H](N)[C@@H](O)[C@@H]1O` [4/3], the values for the MIC in the assay with E. coli ATCC 25922 and against P. aeruginosa ATCC 27853 were 1 to 16 µg/mL (≈ 1.32 to 21.1 µM) and ≤ 1 µg/mL, respectively.

On to `NC[C@@H](F)[C@H](O)C(=O)N[C@@H]1C[C@H](N)[C@@H](O[C@H]2O[C@H](CNCCO)[C@@H](O)C[C@H]2N)[C@H](O[C@@H]2O[C@H](CO)[C@@H](O[C@H]3O[C@@H](CN)[C@@H](O)[C@H](O)[C@H]3N)[C@H]2O)[C@H]1O` [5/3], for which the figures for the MIC in the assay on E. coli ATCC 25922 and against P. aeruginosa ATCC 27853 were 1 to 16 µg/mL (≈ 1.31 to 21 µM) and ≤ 1 µg/mL, respectively.

`NC[C@@H]1O[C@H](O[C@H]2[C@@H](O)[C@H](O[C@@H]3[C@@H](O)[C@H](NC(=O)[C@@H](O)C(F)(F)CN)C[C@H](N)[C@H]3O[C@H]3O[C@H](CNCCO)[C@@H](O)C[C@H]3N)O[C@@H]2CO)[C@H](N)[C@@H](O)[C@@H]1O` [6/3]: the MIC in the assay on E. coli ATCC 25922 and in the assay with P. aeruginosa ATCC 27853 was 1 to 16 µg/mL (≈ 1.28 to 20.5 µM) each time.

In general, MIC refers to the lowest concentration found to suppress growth.
